{
  "source": "patent US20110160244A1",
  "about": "“PHENYL[…] MU-OPIOID RECEPTOR” (AUSPEX PHARMACEUTICALS, INC., priority 2008, published 2011)",
  "origin": "cited, not measured here",
  "key": {"[1]": {"settings": "after oral administration"}},
  "data": [
    {"smiles": "CCOC(=O)C1(c2ccccc2)CCN(C)CC1", "note": "[Meperidine, Ethyl 1-methyl-4-phenylpiperidine-4-carboxylate]", "values": [
      {"measurement": "fraction escaping first-pass metabolism", "setting": "[1]", "value": "about 50%"},
      {"measurement": "time to peak analgesic effect", "setting": "following oral administration", "value": "≤ 2", "unit": "h"},
      {"measurement": "time until analgesic effects are detectable", "setting": "following oral administration", "value": "≤ 15", "unit": "min"},
      {"measurement": "time for which the drug is effective", "setting": "statement on dosing interval", "value": 2, "unit": "h"}
    ]}
  ]
}
